Tested on: Tomato (Solanum lycopersicum 'Rentita')
Assay: Root growth test of tomatoes under oxygen deficiency conditions in the nutrient solution
Assay type: in vivo
Details: 1.0 mg a.i./plant, floating box, nutrient solution not aerated (oxygen deficiency stress), average of maximum root length per plant
Method: To prepare a suitable solution of the preparation, 1 part by weight of active substance is mixed with water to give the desired concentration.
Tomato seeds (Solanum lycopersicum ‘Rentita’) are grown in rock wool. After germination, the rock wool blocks are transferred into a floating box provided with the solution of the preparation and grown on under suitable climatic conditions.
The nutrient solution of the floating box was not aerated (oxygen deficiency stress).
After the desired period of time, the maximum length of the root per tomato plant is measured, and the average root length per floating box and treatment is calculated.

## CC(c1ccc(C(F)(F)F)nc1)S(C)(=O)=NC#N (stereo not shown) [Compound (I-8)]
  Root growth of tomatoes: Length in cm after 4 d: 6.7 cm

Reference: US8796175B2, “Method for enhancing plant intrinsic defense” (Bayer CropScience AG, priority 2008, dated 2014)
